Test results reported in patent publication US5378813A, “Meso-2,5-dimercapto-N,N,N'N'-tetramethyladipamide” (President and Fellows of Harvard College, priority 1992, dated 1995).
Values after ≈ are worked out from the molar mass of the structure shown. Like-named read-outs stand apart in the source and are kept apart here. One block for each compound: values may come before it.

Experiments:
[1] = Solubility in phosphate buffer; assay type: physicochemical; conditions: reduced (dithiol) form, phosphate buffer pH 7.0, 100 mM phosphate, 25° C
Method: ^e The solubilities were determined in phosphate buffer (pH 7.0, 100

[2] = Determination of pKa (absorbance at 238 nm against pH); assay type: physicochemical; conditions: for fraction existing as the thiolate: pH 7.0; for pKa: aqueous buffers
Method: The absorbance at 238 nm of meso-DTA (100 μL of an 8 mM ethanolic solution of meso-DTA) in various aqueous buffers (3 mL, 50 mM: 2,2-dimethylsuccinate, pH 6.0, 6.4, 6.8; Tris, pH 7.0, 7.3, 7.7, 8.0, 8.3, 8.7; glycine, pH 9.0, 9.5, 10.0) was plotted against pH. This curve was then compared with plots derived from theory.

DNase = biological target: T1, DNase (Bos taurus, UniProt P00639); assay: Rate of reduction (deactivation) of DNase; assay type: biochemical; set-up: kapp^DTA: unit not given here
T1 construct: purchased Sigma
Text: (§1) In papain and creatine kinase, the disulfide being reduced is derived from an essential active site cysteine, (Smith et al., Biochemistry 1975, 14, 766-771) and the rate measured is the rate of reactivation of the modified protein. (Shaked et al., Biochemistry 1980, 19, 4156-4166.) DNase is deactivated by the reduction of an internal disulfide. (Shaked et al., Biochemistry 1980, 19, 4156-4166; and Price et al., J. Biol. Chem. 1969, 244, 929-932.)

[3] = Reduction potential and equilibrium constant for reduction of ME^ox by the dithiol; assay type: physicochemical; conditions: for K, equilibrium constant: reduction of ME^ox with the dithiol in water, pH 7.0, 100 mM phosphate buffer; for ε° (reduction potential): relative to mercaptoethanol (-0.209 V)
Method: We used the equilibrium constant between meso-DTA and DTT to determine the values of ε° and K(ME) of meso-DTA.
(§2) After 4 h, a ^1 H NMR spectrum was obtained.

[4] = Equilibration of dl-DTA and meso-DTA (1H NMR); assay type: physicochemical; conditions: 100 mM phosphate buffer, pD 7.0
Method: dl-DTA^OX (2 mg in 0.5 mL of buffered D2 O (100 mM NaPO4, pD 7.0)) and meso-DTA (6 mg in 1.5 mL of buffered D2 O (100 mM NaPO4, pD 7.0)) were mixed in an NMR tube, and ^1 H NMR spectra were taken at various times. The value of Keq was calculated from the ^1 H NMR integrals.

[5] = Kinetics of reduction of mercaptoethanol disulfide by 1H NMR spectroscopy; assay type: physicochemical; set-up: kapp^DTA / kapp, apparent rate constant: unit not given here; conditions: for kapp, apparent rate constant: reduction of mercaptoethanol disulfide (ME^ox), pH 7.0, aqueous phosphate buffer (50 mM)
Method: (§3) The thiol-disulfide interchange reaction was quenched by addition of 25 μL of a DCl solution (12 wt % in D2 O) in one tube after 2 min, in another tube after 4 min, and in another tube after 6 min. The same series of experiments was carried out with the meso-DTA solution instead of the DTT solution. The second-order rate constant was calculated from the integrals of the ^1 H NMR spectra.

[6] = reference value to which all ε° are relative; cited from earlier work
[7] = Kinetics of reduction of glutathione disulfide by 1H NMR spectroscopy; assay type: physicochemical; set-up: kapp^DTA: unit not given here; conditions: pH 7.0, 298 K
Method: as §3

[8] = biological target: T2, creatine kinase-S-S-glutathione (Oryctolagus cuniculus, UniProt P00563); assay: Kinetics of reactivation of creatine kinase-S-S-glutathione; assay type: biochemical; set-up: kapp^DTA: unit not given here
T2 construct: purchased Sigma
Text: as §1
The solution of creatine kinase S-S-glutathione (the procedure was analogous to that of Walters and Gilbert, J. Biol. Chem. 1986, 261, 15372-15377) (10 μL) was diluted with deoxygenated aqueous buffer (pH 7.0, 0.1M imidazole, 2 mM EDTA, 2.5 mL). The diluted solution was added to two flasks (1.0 mL each). […] At various times, a 50-μL aliquot was withdrawn and added to an assay solution (950 μL, pH 6.0, 0.1M imidazole, 2 mM EDTA, 10 mM MgCl2, 2 mM ADP, 20 mM d-glucose, 2 mM NADP, 30 mM phosphocreatine, hexokinase (50 units/mL), glucose-6-phosphate dehydrogenase (35 units/mL)). The rate of increase in absorbance at 340 nm was recorded. (Gerhardt, Methods of Enzymatic Analysis, 3rd ed.; Bergmeyer, Ed.; Verlag Chemie: Weinheim, 1983; Vol. III, pp. 508-524.)

[9] = Relative rate of reduction of disulfides, meso-DTA compared with DTT (summary and calculation); assay type: physicochemical; conditions: pH 7.0
Text: as §1
The difference between the calculated and the actual value for proteins could be due to steric interactions, because meso-DTA is a secondary thiol and DTT is a primary thiol. The difference in rates could also be due to the relative difference in hydrophobicities of the two compounds.

[10] = Equilibrium experiment, meso-DTA with DTT^OX (1H NMR); assay type: physicochemical; conditions: 50 mM phosphate buffer, pD 7.0
Method: as §2

papain-S-S-Me = biological target: T3, papain-S-S-Me (Carica papaya, UniProt P00784); assay: Kinetics of reactivation of papain-S-S-Me; assay type: biochemical; set-up: kapp^DTA: unit not given here
T3 construct: purchased Boehringer Mannheim
T3 sequence (P00784 134-345): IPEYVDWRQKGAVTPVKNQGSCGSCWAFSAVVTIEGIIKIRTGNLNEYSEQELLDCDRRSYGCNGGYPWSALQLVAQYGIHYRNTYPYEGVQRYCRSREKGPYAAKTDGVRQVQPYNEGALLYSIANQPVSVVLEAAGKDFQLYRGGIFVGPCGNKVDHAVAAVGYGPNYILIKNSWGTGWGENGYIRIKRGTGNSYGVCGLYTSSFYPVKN
Method: as §1
The papain-S-S-Me was prepared as described by Shaked et al., Biochemistry 1980, 19, 4156-4166. […] Chem. 1991, 56, 2332-2337.

[11] = reduction of an internal disulfide, aqueous solution, pH 7.0, 298 K
[12] = aqueous buffer, read-out: solubility
[13] = DMH data from Singh and Whitesides 1991
[14] = rate of reactivation, aqueous solution, pH 7.0, 298 K

T2 sequence (P00563 2-381 limits assumed): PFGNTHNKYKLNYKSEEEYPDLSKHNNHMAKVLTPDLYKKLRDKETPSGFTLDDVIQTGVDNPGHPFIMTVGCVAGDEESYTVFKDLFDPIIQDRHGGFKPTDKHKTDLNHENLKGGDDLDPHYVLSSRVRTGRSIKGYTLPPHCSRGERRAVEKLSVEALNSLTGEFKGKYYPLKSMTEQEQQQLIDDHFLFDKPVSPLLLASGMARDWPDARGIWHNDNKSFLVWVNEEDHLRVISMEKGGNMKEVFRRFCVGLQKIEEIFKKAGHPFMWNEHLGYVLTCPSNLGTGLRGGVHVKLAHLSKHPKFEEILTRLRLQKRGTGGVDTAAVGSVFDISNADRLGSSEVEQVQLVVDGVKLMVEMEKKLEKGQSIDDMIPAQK
T1 sequence (P00639 23-282): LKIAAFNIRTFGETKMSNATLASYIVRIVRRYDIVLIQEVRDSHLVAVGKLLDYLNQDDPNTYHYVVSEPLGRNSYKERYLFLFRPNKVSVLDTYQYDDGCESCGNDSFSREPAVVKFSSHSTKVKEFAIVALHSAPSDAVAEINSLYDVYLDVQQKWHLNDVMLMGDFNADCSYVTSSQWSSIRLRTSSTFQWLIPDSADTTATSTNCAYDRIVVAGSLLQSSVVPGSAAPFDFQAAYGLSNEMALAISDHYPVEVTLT

Compound: O[C@H](CS)[C@H](O)CS (racemic) [DTT, dithiothreitol, reference compound]
- solubility [1]: high
- fraction existing as the thiolate [2]: about 1%
- kapp^DTT (DNase; [11]): 0.19 M^1 g^-1
- K, equilibrium constant [3]: 10^5 M
- ε° (reduction potential) [3]: -0.356 V

- factor by which more reducing than meso-DTA [4]: 10
- K, equilibrium constant [3]: 10^4 M
- ε° (reduction potential) [3]: -0.328 V
Compound: CN(C)C(=O)[C@H](S)CC[C@@H](S)C(=O)N(C)C (relative stereo) [dl-DTA]

- solubility [1, 12]: 250 mM (≈ 52.1 mg/mL)
- pKa ([2]; read-out: pKa (first thiol)): 7.6
- pKa ([2]; read-out: pKa (second thiol)): 8.9
- K, equilibrium constant [3]: 10^3 M
- ε° (reduction potential) [3]: -0.300 V
Compound: CN(C(=O)CS)N(C)C(=O)CS [DMH, N,N'-dimethyl-N,N'-bis(mercaptoacetyl) hydrazine, reference compound]
- kapp, apparent rate constant [5]: 0.52

Compound: OCCS [ME, Mercaptoethanol]
- ε° of the reference mercaptoethanol [6]: -0.209 V

Compound: CN(C)C(=O)[C@H](S)CC[C@H](S)C(=O)N(C)C [meso-DTA, meso-2,5-Dimercapto-N,N,N',N'-tetramethyladipamide]
- kapp^DTA / kapp^DTT ([7]; glutathione disulfide): 5.5
- kapp^DTA ([7]; reduction of glutathione disulfide, aqueous solution): 0.31
- solubility [1, 12]: 80 mM (≈ 21.2 mg/mL)
- pKa ([2]; read-out: pKa (first thiol)): 7.8 ± 0.2
- pKa ([2]; read-out: pKa (second thiol)): 8.9 ± 0.2
- fraction existing as the thiolate [2]: approximately 15%
- kapp^DTA / kapp^DMH [8, 13]: 0.5
- kapp^DTA / kapp^DTT ([8]; pH 7.0, 298 K): 3.4
- kapp^DTA [8, 14]: 78
- times faster reduction of disulfide bonds than DTT ([9]; aqueous solution): up to 8 times
- relative rate of reduction compared with DTT, disulfide bond in proteins ([9]; water): 2-5 times
- Keq = [meso-DTA^OX][DTT]/[meso-DTA][DTT^OX] [10]: 0.010
- kapp^DTA / kapp^DMH (DNase; [13]): 0.4
- kapp^DTA / kapp^DTT (DNase; pH 7.0, 298 K): 1.8
- kapp^DTA (DNase; [11]): 0.34
- Keq = [meso-DTA^OX][dl-DTA]/[meso-DTA][dl-DTA^OX] [4]: 0.10
- factor by which the equilibrium constant for reduction of ME^OX is less than that of DTT [3]: 10^2
- less reducing than DTT by [3]: approximately 56 mV
- K, equilibrium constant [3]: 10^3 M
- ε° (reduction potential) [3]: -0.300 V
- kapp^DTA / kapp^DTT ([5]; mercaptoethanol disulfide, pH 7.0, 298 K): 7.7
- kapp^DTA / kapp^DMH ([5]; mercaptoethanol disulfide, DMH data from Singh and Whitesides 1991): 1.1
- kapp, apparent rate constant [5]: 0.50
- kapp^DTA ([5]; reduction of mercaptoethanol disulfide, aqueous solution, pH 7.0, 298 K): 0.50
- kapp^DTA / kapp^DMH (papain-S-S-Me; [13]): 0.15
- kapp^DTA / kapp^DTT (papain-S-S-Me; pH 7.0, 298 K): 4.5
- kapp^DTA (papain-S-S-Me; [14]): 260
